Consider 3 compounds from USRE36736E, “Substituted pyrroles” (Hoffman-La Roche Inc., priority 1998, dated 2000).

SMILES strings stand for the structures.

The target in this assay is protein kinase C. As to the kind of experiment: inhibition of protein kinase C in vitro (protein kinase-induced incorporation of 32P from [γ-32P]ATP into histone). The settings on record: histone substrate, read-out: IC50: concentration which reduces by 50% the protein kinase-induced incorporation of ^32 P from [γ-^32 P]ATP into histone. The assay is classed as biochemical. An excerpt:
The IC50 figures in the following Table, represent that concentration of test compound which reduces by 50% the protein kinase-induced incorporation of ^32 P from [γ-^32 P]ATP into histone.
For `Cn1cc(C2=C(c3cn(CCC(N)=O)c4ccccc34)C(=O)NC2=O)c2ccccc21` [3-[1-(2-carbamoylethyl)-3-indolyl]-4-(1-methyl-3-indolyl)-1H-pyrrole-2,5-dione], the IC50 turned out to be 500 nM.
Turning to `Cn1cc(C2=C(c3cn(CCCSC(=N)N)c4ccccc34)C(=O)NC2=O)c2ccccc21` [3-[1-[3-(amidinothio)propyl]-3-indolyl]-4-(1-methyl-3-indolyl)-1H-pyrrole-2,5-dione], the IC50 was determined as 10 nM.
In the case of `Cn1cc(C2=C(c3cn(CCCN=C=S)c4ccccc34)C(=O)NC2=O)c2ccccc21` [3-[1-(3-isothiocyanatopropyl)-3-indolyl]-4-(1-methyl-3-indolyl)-1H-pyrrole-2,5-dione] it was 8 nM.
